According to patent publication US11382848B2, “Compounds reducing malodour perception and the use thereof” (CHEMCOM S.A., priority 2017, dated 2022):

Key:
[1] = tested on: perception of androstenone; assay: Alternative sensory test with Tedlar bags and expert panel
Description: The test consists, in a first step, in microinjecting androstenone (at 0.6% in ethanol), compound 1 (pure) or androstenone+compound 1 in 10 L Tedlar™ bags specially conceived for gas sampling, previously loaded with a known volume of pure air (from oil free compressor with additional charcoal filters). Than the compound of interest (EtOH solution) is injected with a high accuracy micro-syringe through a septum placed on the tap-valve.
The odour presentation device consists of a cylinder to be filled with clean air. The bag is inserted in the cylinder and connected to a sampling installation in the cylinder by means of a valve. By controlled injection of clean air into the cylinder, the interior pressure is raised and the sampling air is pressed in a controlled manner out of the sample container through the opened valve. This sampling air is transferred to the nose of the corresponding sensory odour panel member by means of a funnel. By this means, each sensory odour panel member receives an identical sample with a standardized volume flow and a constant provision time. The outlet flow rate is between 10-20 L/min (in order to avoid any mixing with ambient air before reaching the nose).
The expert panel is entering the room 15 minutes before starting the test. The basic standard test is a rating in intensity and the use of the closest chemical descriptors according to the following order of presentation:
Each assessor can smell for few seconds. A pause of min. 1 minute is considered between presentations.
The individual rating is done with a resolution of 0.5 on a scale ranging from 0 (no odour) to 5 (saturating odour).

[2] = molecular target: T1, human olfactory receptor OR7D4 (Homo sapiens, UniProt Q8NG98); assay: OR7D4 luciferase gene reporter assay (antagonism of agonist-induced activation); assay type: cell-based
T1 construct: transfected with a plasmid containing CRE-luciferase and a plasmid containing OR7D4; expressed in transfected cells; host or cells: HEK293T stably expressing olfactory chaperone proteins of the RTP family
T1 sequence (Q8NG98 1-312): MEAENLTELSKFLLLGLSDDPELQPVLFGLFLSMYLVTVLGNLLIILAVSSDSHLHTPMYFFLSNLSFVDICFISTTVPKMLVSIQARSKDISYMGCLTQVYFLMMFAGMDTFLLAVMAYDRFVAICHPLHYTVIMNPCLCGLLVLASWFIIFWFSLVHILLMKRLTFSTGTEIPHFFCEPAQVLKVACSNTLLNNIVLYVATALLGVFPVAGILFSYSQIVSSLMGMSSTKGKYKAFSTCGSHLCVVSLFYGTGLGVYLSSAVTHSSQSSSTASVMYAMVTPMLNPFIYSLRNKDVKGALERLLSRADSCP
Description: Cells were maintained in minimal essential medium (EMEM, Lonza) containing 10% fetal bovine serum (M10). HEK293T stably expressing olfactory chaperone proteins from the RTP family as described in WO 2006/002161 (introduced here as a reference) were generated by transfecting HEK293T cells with expression vector containing the chaperone gene sequences and a resistance gene to puromycin, using Lipofectamine 2000. A recombinant cell population was selected by adding 10 μg/ml of puromycin into the culture medium. Monoclonal populations were further obtained by limit dilution procedure. Briefly, a cell suspension was diluted to contain 1 cell per ml and this dilution was dispatched in poly-D-lysine-coated 96 well plates (200 μl of dilution per well). After 5 days of culture, the presence and number of cell colonies per well was checked under a phase contrast microscope. After 5 additional days of culture, wells containing a single colony were harvested and each collected population was amplified independently.
The 5-alpha-androst-16-ene-3-one, used as an agonist of the human olfactory receptor OR7D4 and the tested molecules were diluted at a concentration of 1 mole/litre (M) into dimethyl sulfoxide (DMSO) to generate stock solutions.
For concentration-response analysis, serial dilutions of the tested molecules were prepared from stock solutions in EMEM plated into 96-well plates.
(§1) Briefly, cells were plated on poly-D-lysine-coated 96-well plates (BD Bioscience, Erembodegem-Dorp, Belgium) and transfected with a plasmid containing CRE-luciferase and a plasmid containing OR7D4. Sixteen hours after transfection, the culture medium was replaced by serum-free EMEM containing the tested ligands at a determined concentration. After four hours of incubation at 37° C. degree, cells were lysed and processed for luminescence measurement according to the manufacturer's protocols. Luminescence emission was recorded on a Spectra Max M5 reader (Molecular Devices, Sunnyvale, Calif.). Results were expressed as percentage of the response induced by 10 μM of the adenylate cyclase activator Forskolin.
The ability of the compounds of the invention to inhibit the activity of androstenone on OR7D4 receptor was assessed by the luciferase assay described above.
To determine whether a molecule antagonizes OR7D4, this compound was introduced in the incubation medium of the Luciferase assay described above at a concentration of either 316 μM, 100 μM or 31.6 μM, along with the known activator of the receptor 5α-androst-16-en-3-one at a concentration of 31.6 μM. Molecules were considered as “hits” i.e., as having an antagonist effect on the receptor, if they induced a decrease of at least 50% of the luciferase production elicited upon activation of OR7D4 by 5α-androst-16-en-3-one.
Putative antagonist molecule libraries containing compound 1 and other types of molecules were used to identify antagonist of the receptor OR7D4. The screening campaign was performed on the OR7D4 with a series of 112 putative antagonist molecules. In this screening campaign, compound 1 was identified as a hit.
The compound 1 was further confirmed as antagonist of OR7D4 by performing dose-response analysis using the luciferase assay. Different concentrations of compound 1, ranging from 31.6 nM to 1 mM were tested on HEK293 cell expressing OR7D4 and stimulated with 31.6 μM of 5α-androst-16-en-3-one.
The antagonistic property of compound 1 on OR7D4 was further confirmed by measuring the response of the OR7D4 to 5α-androsta-4,16-dien-3-one in presence of compound 1, using the luciferase assay as describe hereinabove. The observed inhibition was in the same range as the one observed when stimulating the receptor with 5α-androst-16-en-3-one.
To further explore the antagonism on OR7D4, a series of compounds structurally related to compound 1 were synthesized and assessed as antagonists of OR7D4 by dose-response analysis using the luciferase assay. […]

[3] = tested on: forskolin-induced, receptor-independent production of cAMP / Luciferase; assay: Forskolin control in cells not expressing the receptor (luciferase assay); assay type: cell-based; settings: cells that did not express the receptor, stimulated by forskolin
Description: as §1

## CCCCCCC(=C\c1ccccc1)/C=C(\C)C(=O)OCC [Compound 1, ethyl (E)-4-((E)-benzylidene)-2-methyldec-2-enoate]
[1]; Androstenone + compound 1
  typical odour of sweat of Androstenone when smelled in the presence of the compound: completely disappears
[1]; compound 1 alone
  intrinsic smell: mushroom
[1]; compound 1 alone compared with androstenone alone
  odour intensity: lower than the one of androstenone alone
[2]; 31.6 nM to 1 mM compound, HEK293 cell expressing OR7D4 stimulated with 31.6 μM 5α-androst-16-en-3-one
  Luciferase activity elicited by 5α-androst-16-en-3-one, dose-response (FIG. 1): decrease of Luciferase activity
[2]; compound at 316 μM, 100 μM or 31.6 μM with 5α-androst-16-en-3-one at 31.6 μM, 112 putative antagonist molecules screened
  hit in antagonist screening (decrease of at least 50% of the luciferase production): hit
[2]; dose-response, luciferase assay, half decrease of the luciferase production obtained without antagonist, androstenone at 31.6 micromolar
  IC50: 2000 nM
[2]; response of OR7D4 to 5α-androsta-4,16-dien-3-one in presence of compound
  IC50: 2500 nM
[3]
  forskolin-induced production of Luciferase: not affected
